Where two headings read alike, the source gives them in different places.
Columns and labels:
[1] = molecular target: METTL3/METTL14 (Homo sapiens, UniProt Q86U44); assay: METTL3-14 Standard Enzyme Assay (METTL3 biochemical assay)
Method in brief: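 Tritium transfer from ³H-SAM (100 nM) to biotinylated RNA (100 nM) captured on streptavidin flashplates and counted by scintillation. Enzyme complex (2.5 nM) with compound, 5 min preincubation, 30 min reaction at ambient temperature, HEPES pH 7.5 buffer, stopped by excess unlabeled SAM.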

[2] = molecular target: METTL1/WDR4 (Homo sapiens, UniProt Q9UBP6); assay: METTL1 Assay (METTL1 biochemical assay)
Method in brief: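 Radiometric methyltransfer by METTL1/WDR4 (6.25 nM f.c., 5 min preincubation) at ambient temperature in HEPES pH 7.5, KCl, MgCl2, DTT; started with 25 nM 3′-biotinylated RNA and 60 nM 3H-SAM, run 20 min, quenched with 15 μM cold SAM. Product captured on streptavidin flashplates (2 h, 25° C), counted by scintillation.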

[3] = molecular target: PRMT5-MEP50 (Homo sapiens, UniProt O14744); assay: PRMT5 Assay (PRMT5 biochemical assay)
Method in brief: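 Radiometric methyltransferase read-out: after 60 min reaction, excess unlabelled SAM (15 μM) stops turnover and biotinylated H4 peptide (100 nM) carrying 3H-methyl from 250 nM 3H-SAM is captured on streptavidin flashplates (2 h, 25° C) for scintillation counting. Enzyme, 2.5 nM PRMT5-MEP50, was preincubated 5 min with compound in pH 8.0 Tris buffer with DTT and Tween.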

[4] = tested on: m6A in cellular mRNA of MOLM-13 cells; assay: m6A-mRNA LC-MS/MS Assay (m6A cellular assay); type: cell-based; conditions: Homo sapiens
Protocol: Cells were harvested by centrifugation followed by mRNA extraction using DIRECT Dynabeads mRNA DIRECT kit (Life Technologies). mRNA was quantified on NanoDrop spectrophotometer (Thermo Fisher Scientific) and digested into single nucleosides using Nucleoside Digestion Mix (New England Biolabs). […] Quantification is performed in comparison with the standard curve, obtained from pure nucleoside standards (Selleck Chemicals) running with the same batch of samples. Percentage m^6A in cellular mRNA is calculated as 100*(m^6A/A).

[5] = molecular target: T1, METTL16 (Homo sapiens, UniProt Q86W50); assay: METTL16 Assay (METTL16 biochemical assay); conditions: read-out: METTL16 IC50
T1 sequence (Q86W50 1-562): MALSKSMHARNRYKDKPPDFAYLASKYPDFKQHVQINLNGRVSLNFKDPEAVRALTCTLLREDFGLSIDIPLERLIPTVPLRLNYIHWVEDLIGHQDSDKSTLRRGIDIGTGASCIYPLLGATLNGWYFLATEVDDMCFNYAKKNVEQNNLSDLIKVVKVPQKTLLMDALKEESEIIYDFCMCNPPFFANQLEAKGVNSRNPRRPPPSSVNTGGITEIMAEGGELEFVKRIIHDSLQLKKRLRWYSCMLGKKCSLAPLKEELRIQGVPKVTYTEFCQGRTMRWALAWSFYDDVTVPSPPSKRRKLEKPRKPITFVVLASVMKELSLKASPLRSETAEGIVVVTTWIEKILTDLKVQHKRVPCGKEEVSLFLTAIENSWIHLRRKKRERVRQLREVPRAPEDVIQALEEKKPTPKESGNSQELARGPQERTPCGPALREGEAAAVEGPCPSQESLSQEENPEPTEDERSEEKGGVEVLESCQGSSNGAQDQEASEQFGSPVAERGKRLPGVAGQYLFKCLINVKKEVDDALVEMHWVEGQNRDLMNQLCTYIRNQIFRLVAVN
Protocol: Assays were performed in a 25 μl-volume in 384-well V-bottom polypropylene microplates (Greiner Bio-One, cat. No. 781280) at ambient temperature. Optimized 1× assay buffer was 20 mM HEPES pH 7.5, 50 mM KCl, 1 mM DTT, 0.01% Tween, 0.01% BSG, 0.004 U/μl RNAseOUT (cat. No. 10777019, ThermoFisher Scientific, Waltham, Mass.). For compound screening METTL16 (final concentration, f.c.=100 nM) was added using a Multidrop Combi (ThermoFisher Scientific, Waltham, Mass.) and preincubated for 5 min. Reactions were started by adding 3′ biotinylated RNA ([…]-biotin) (f.c.=50 nM), 3H-SAM (f.c.=200 nM) and non-radiolabeled SAM (f.c.=800 nM) substrates. Reactions proceeded for 20 minutes and were quenched with excess non-radioactive SAM (f.c.=100 μM). The reactions were then transferred to streptavidin-coated flashplates and incubated for 2 hours at 25° C. Following two washing cycles with 0.1% Tween-20, the plates were sealed and read on a TopCount (PerkinElmer, Waltham, Mass.) plate-based scintillation counter. For determination of kinetic parameters, reaction times were optimized so that measurements were taken during the initial velocity phase of the reaction.

[6] = tested on: MOLM-13 cells; assay: MOLM-13 96 Hour Cell Proliferation Assay; type: cell-based; conditions: Homo sapiens, MOLM-13, 96 h
Protocol: MOLM-13 (DSMZ) cells were seeded at 600 cells per well in a volume of 44 μL in a Greiner Bio-One CELLSTAR™ 384 Well Polystyrene Cell Culture clear bottom microplate in RPMI 1640 media containing 10% fetal bovine serum using a Multidrop Combi (ThermoFisher Scientific). Cells were incubated overnight at 37° C. in a humidified tissue culture incubator. To prevent evaporation or to reduce edge effect, add 50 μL or more H2O to an empty plate, cover, and place on top of the cell plates. The Mosquito® HTS Liquid Handler was used to make a compound/media intermediate plate by aliquoting 1 μL of compound from the initial compound dilution plate (concentrations ranging from 10.0 mM to 38.0 nM in 100% DMSO) into Bio-One 384-well polypropylene conical bottom microplate containing 49 μL of media containing the appropriate serum (50-fold dilution, 2% DMSO, compound concentrations ranging from 200.0 μM and […]). The Apricot liquid handling system was used to transfer 6.2 μL compounds from the intermediate plate into the seeding plate containing 44 μL cells (8-fold dilution spanning concentrations 25.0 μM to […], 0.25% DMSO final), and placed in a humidified tissue culture incubator at 37° C. After 96 hours, 25 μL of Cell Titer-Glo reagent (Promega) was added to each well using an Integra liquid handling system. The plate was protected from light using TopSeal-A (Black) film over the entire plate, added White Bottom seal film on the bottom of the entire plate for a better reading on the Envision, and placed on an IKA plate shaker for at 300 rpm for 10 minutes at room temperature. The plate was read on an EnVision plate reader (Perkin Elmer) using the Ultra Sensitive Luminescence protocol. Data analysis was performed by normalizing the raw luminescence units to an average of the positive control values for staurosporine (100% cell death) and the negative control values for DMSO (0% cell death). An IC50 was calculated using a 4-parameter logistic nonlinear regression model in GraphPad Prism.

[7] = METTL3 biochemical assay; read-out: METTL3 IC50
[8] = METTL1 biochemical assay; read-out: METTL1 IC50
[9] = PRMT5 biochemical assay; read-out: PRMT5 IC50
[10] = read-out: METTL3 IC50; METTL3 biochemical assay
[11] = read-out: PRMT5 IC50; PRMT5 biochemical assay
[12] = read-out: METTL1 IC50; METTL1 biochemical assay

Chain of METTL3/METTL14 (Q86U44 whole entry, species assumed): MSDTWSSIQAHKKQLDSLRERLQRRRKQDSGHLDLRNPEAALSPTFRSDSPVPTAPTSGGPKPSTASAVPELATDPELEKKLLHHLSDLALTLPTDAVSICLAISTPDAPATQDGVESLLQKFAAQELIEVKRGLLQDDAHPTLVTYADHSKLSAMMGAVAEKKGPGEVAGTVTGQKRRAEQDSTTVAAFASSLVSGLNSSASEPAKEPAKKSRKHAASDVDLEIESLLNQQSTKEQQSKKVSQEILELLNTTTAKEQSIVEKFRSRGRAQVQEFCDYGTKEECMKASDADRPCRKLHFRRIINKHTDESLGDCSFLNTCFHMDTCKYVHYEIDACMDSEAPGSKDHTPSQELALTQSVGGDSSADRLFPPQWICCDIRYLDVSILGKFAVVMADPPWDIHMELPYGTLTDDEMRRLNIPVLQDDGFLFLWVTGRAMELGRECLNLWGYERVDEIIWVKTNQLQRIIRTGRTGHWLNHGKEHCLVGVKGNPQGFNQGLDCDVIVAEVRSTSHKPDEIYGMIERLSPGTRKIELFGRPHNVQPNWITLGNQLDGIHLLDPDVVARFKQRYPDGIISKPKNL
Chain of METTL3/METTL14 (Q9HCE5 whole entry partner, species assumed): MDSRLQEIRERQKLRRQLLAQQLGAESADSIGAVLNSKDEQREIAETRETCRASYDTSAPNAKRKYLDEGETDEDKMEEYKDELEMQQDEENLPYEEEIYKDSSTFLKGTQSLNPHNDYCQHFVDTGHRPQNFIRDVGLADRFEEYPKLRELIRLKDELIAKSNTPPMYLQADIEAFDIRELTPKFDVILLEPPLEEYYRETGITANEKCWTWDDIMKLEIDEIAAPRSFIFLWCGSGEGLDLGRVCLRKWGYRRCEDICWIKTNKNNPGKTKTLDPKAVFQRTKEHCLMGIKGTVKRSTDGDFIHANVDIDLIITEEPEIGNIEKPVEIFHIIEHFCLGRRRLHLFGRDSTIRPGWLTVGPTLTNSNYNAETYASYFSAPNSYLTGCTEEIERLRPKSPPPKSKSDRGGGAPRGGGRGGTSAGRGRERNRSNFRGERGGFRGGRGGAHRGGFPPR
Chain of METTL1/WDR4 (Q9UBP6 whole entry, species assumed): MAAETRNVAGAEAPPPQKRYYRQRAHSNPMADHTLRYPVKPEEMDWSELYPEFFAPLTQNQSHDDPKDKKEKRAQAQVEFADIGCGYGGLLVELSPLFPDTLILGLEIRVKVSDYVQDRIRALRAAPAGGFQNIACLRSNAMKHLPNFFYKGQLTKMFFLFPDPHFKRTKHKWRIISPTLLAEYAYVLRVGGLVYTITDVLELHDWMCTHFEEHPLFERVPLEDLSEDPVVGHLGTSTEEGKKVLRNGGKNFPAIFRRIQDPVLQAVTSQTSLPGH
Chain of METTL1/WDR4 (P57081 whole entry partner, species assumed): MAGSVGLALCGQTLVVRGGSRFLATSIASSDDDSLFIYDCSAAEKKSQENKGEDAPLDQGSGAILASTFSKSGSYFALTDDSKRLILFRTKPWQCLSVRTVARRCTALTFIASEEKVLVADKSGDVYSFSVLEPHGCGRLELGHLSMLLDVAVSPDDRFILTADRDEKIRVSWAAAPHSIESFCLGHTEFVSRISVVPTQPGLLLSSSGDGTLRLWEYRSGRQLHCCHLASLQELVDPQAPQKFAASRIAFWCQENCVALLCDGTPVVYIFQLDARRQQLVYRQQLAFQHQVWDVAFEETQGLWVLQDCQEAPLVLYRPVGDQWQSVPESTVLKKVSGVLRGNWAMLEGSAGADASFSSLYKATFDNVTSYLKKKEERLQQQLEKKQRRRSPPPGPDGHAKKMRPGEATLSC
Chain of PRMT5-MEP50 (O14744 whole entry): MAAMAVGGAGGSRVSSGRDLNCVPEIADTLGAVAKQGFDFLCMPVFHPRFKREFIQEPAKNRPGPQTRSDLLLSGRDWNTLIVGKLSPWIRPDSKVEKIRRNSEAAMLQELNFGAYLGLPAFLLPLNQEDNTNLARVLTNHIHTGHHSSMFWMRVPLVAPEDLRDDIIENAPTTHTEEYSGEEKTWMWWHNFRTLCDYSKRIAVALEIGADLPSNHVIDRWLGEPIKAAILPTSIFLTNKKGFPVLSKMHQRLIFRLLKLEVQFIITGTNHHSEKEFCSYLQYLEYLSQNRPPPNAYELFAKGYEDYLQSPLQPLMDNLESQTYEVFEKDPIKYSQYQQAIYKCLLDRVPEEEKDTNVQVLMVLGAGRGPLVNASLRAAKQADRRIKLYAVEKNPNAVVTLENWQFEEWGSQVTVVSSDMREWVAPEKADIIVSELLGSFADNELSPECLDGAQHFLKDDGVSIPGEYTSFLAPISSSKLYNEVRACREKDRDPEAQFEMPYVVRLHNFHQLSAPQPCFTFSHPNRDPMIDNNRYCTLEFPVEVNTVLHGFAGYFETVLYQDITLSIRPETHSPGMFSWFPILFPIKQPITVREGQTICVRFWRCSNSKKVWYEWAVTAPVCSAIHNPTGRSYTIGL
Chain of PRMT5-MEP50 (Q9BQA1 whole entry partner): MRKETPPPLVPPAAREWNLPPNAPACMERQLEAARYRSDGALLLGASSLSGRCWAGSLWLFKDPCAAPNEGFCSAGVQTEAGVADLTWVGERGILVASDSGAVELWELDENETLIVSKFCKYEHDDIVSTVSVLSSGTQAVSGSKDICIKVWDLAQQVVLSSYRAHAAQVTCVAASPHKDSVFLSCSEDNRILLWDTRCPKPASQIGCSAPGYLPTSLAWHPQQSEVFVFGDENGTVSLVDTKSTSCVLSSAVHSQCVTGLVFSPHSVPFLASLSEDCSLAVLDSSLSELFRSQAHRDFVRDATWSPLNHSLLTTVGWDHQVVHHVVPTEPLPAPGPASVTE

Compound | IC50 [1, 7] [µM] | IC50 [2, 8] [µM] | IC50 [3, 9] [µM] | IC50 ([4]; MOLM-13, m6A cellular assay, read-out: m^6A IC50) [µM] | IC50 [1, 10] [µM] | IC50 [3, 11] [µM] | IC50 ([4]; MOLM-13, read-out: m^6A IC50) [µM] | IC50 [2, 12] [µM] | IC50 [5] [µM] | IC50 [6] [µM]
CCNc1ccc2ccc(OC[C@H]3O[C@@H](n4ccc5c(N)ncnc54)[C@@H](F)[C@@H]3O)cc2n1 [I-5] | < 0.01 | > 1 | 0.01 to 0.1 | 1 to 10 |  |  |  |  |  | 
CNc1ccc2ccc(OC[C@H]3O[C@@H](n4cc(-c5ccn(C)n5)c5c(N)ncnc54)[C@H](O)[C@@H]3O)cc2n1 [I-6] |  | > 1 |  |  | < 0.01 | < 0.01 | < 1 |  |  | 
CCNc1ccc2ccc(OC[C@H]3O[C@@H](n4cc(C5CCCC5)c5c(N)ncnc54)[C@H](O)[C@@H]3O)cc2n1 [I-8] | < 0.01 |  | < 0.01 |  |  |  | < 1 | > 1 |  | 
CNc1ccc2ccc(OC[C@H]3O[C@@H](n4cc(-c5ccccn5)c5c(N)ncnc54)[C@@H](F)[C@@H]3O)cc2n1 [I-9] |  | > 1 |  |  | < 0.01 | 0.01 to 0.1 | 1 to 10 |  |  | 
Nc1ccnc2cc(OC[C@H]3O[C@@H](n4cc(Br)c5c(N)ncnc54)[C@@H](F)[C@@H]3O)ccc12 [I-13] | 0.1 to 1 |  | 0.01 to 0.1 |  |  |  |  |  | > 1 | > 10
Cc1cc(N)c2ccc(OC[C@H]3O[C@@H](n4cc(Br)c5c(N)ncnc54)C[C@@H]3O)cc2n1 [I-19] | 0.1 to 1 |  | 0.1 to 1 |  |  |  |  | > 1 | > 1 | > 10
Nc1ncnc2c1ccn2[C@@H]1O[C@H](CCc2ccc3ccc(N4CCCC4)nc3c2)[C@@H](O)[C@H]1O [I-68] | 0.01 to 0.1 |  | 0.1 to 1 |  |  |  |  | > 1 | > 1 | 1 to 10
Nc1ccc2ccc(OC[C@H]3O[C@@H](n4cc(Br)c5c(N)ncnc54)[C@H](O)[C@@H]3O)cc2n1 [I-71] | 0.01 to 0.1 |  | < 0.01 |  |  |  |  | > 1 | > 1 | 
Nc1ncnc2c1c(Br)cn2[C@@H]1O[C@H](COc2ccc3ccc(N4CCCC4)nc3c2)[C@@H](O)[C@H]1O [I-72] | 0.01 to 0.1 |  | 0.01 to 0.1 |  |  |  |  | > 1 | > 1 | 
